Laboratory results taken from paper PMC4117768, “Conjugation with polyamines enhances the antibacterial and anticancer activity of chloramphenicol” (Nucleic Acids Research, 2014).
Read-outs that look alike come from different tables or passages of the source. Marks after values point to notes of the source that are not given here.

Legend:
[1] = test system: E. coli (A2058G) TA531 cells with pKK35 plasmid, mutated 23S rRNA; test: Growth inhibition of bacterial cell cultures, CAM-resistant mutant; assay type: cell-based; conditions: Escherichia coli, read-out: IC50 (inhibit the growth by half)
Description: (§1) CAM free base [D-(-)threo-1-(p-nitrophenyl)-2-amino-1,3-propanediol], puromycin dihydrochloride, tRNA^Phe from E. coli, dimethyl sulfate (DMS), DMS stop solution and tRNA^Phe from E. coli were purchased from Sigma-Aldrich. Kethoxal and 1-cyclohexyl-3-(2-morpholinoethyl)-carbodiimide metho-p-toluene sulfate (CMCT) were from MP Biomedicals and Fluka Biochemicals, respectively. AMV reverse transcriptase was supplied by Roche, dNTPs by HT Biotechnology, and ddNTPs by Jena Bioscience. L-[2,3,4,5,6 -^3H]Phenylalanine was from Amersham Biosciences and [α-^32P]ATP from Izotop. Cellulose nitrate filters (type HA; 0.45 μm pore size) were from Millipore Corp. Details in experimental procedures of synthesis and physical and spectra data for the synthesized compounds will be published elsewhere. […] The mesothelioma cell line ZL34 and its immortalized counterpart cell line Met5A, were kindly provided by Prof. G. Stathopoulos (University of Patras).
(§2) S. aureus or E. coli cells (400 μl of a 0.700 OD560 preculture) containing wild-type or mutant ribosomes were added in 3.6 ml of LB (Luria Broth) medium and grown at 37°C in the presence or absence of CAM or PA–CAM conjugates until the optical density of the control culture (grown in the absence of drug) reached the value 0.700 at 560 nm. From the growth curves, the IC50 value for each strain was estimated as the concentration of the drug that is required to inhibit the growth by half.

[2] = test system: E. coli (A2503C) TA531 cells with pKK35 plasmid, mutated 23S rRNA; test: as above; assay type: cell-based; conditions: Escherichia coli, read-out: IC50 (inhibit the growth by half)
Description: as §1, §2

[3] = test system: complex C (poly(U)-programmed ribosomes from E. coli bearing Ac[3H]Phe-tRNA at the P-site), peptidyl transferase; test: Inhibition of AcPhe-puromycin synthesis (puromycin reaction, peptide bond formation); assay type: biochemical; conditions: for Ki: 25°C, buffer A; for koff: isomerization C*I to CI, non linear regression fitting; for potency relative to CAM, based on Kik7/(k6 + k7): overall two-step inhibition of the puromycin reaction
Procedure: Isolation of 70S ribosomes from E. coli K12 cells and preparation of Ac[^3H]Phe-tRNA^Phe charged to 80% were performed, as described previously ([23]). The post-translocation complex of poly(U)-programmed ribosomes (complex C), bearing tRNA^Phe at the E-site and Ac[^3H]Phe-tRNA at the P-site was prepared in buffer A (100 mM Tris-HCl pH 7.2, 6 mM (CH3COO)2Mg, 100 mM NH4Cl and 6 mM 2-mercaptoethanol). The percentage of active ribosomes in AcPhe-tRNA binding was 72%. This ribosomal population was more than 90% reactive toward puromycin.
The reaction between complex C and excess puromycin (S), a pseudo-substrate which binds to the ribosomal A-site, was performed at 25°C in buffer A and analyzed as described in detail elsewhere ([11]). Briefly, since the reaction followed first-order kinetics, the first-order rate constant kobs at each concentration of puromycin was determined by fitting the corrected x-values into Equation ([1]), (1) where x is the product Ac[^3H]Phe-puromycin expressed as the percentage of complex C radioactivity added in the reaction mixture and t the time of the reaction. kobs is related to the puromycin concentration, [S], by the relationship, (2) where kcat is the catalytic rate constant of PTase and KS the affinity constant of puromycin for complex C.
In the presence of CAM–polyamine conjugates, biphasic logarithmic time plots were obtained. The slope of the straight line through the origin was taken as the value of the apparent rate constant, kobs(early), at the early phase of the reaction, while the slope of the second straight line was taken as the value of the rate constant, kobs(late), at the late phase of the reaction.

wild-type S. aureus = test: Growth inhibition of bacterial cell cultures; assay type: cell-based; conditions: Staphylococcus aureus, read-out: IC50 (inhibit the growth by half)
Procedure: as §2

wild-type E. coli = test: Growth inhibition of bacterial cell cultures; assay type: cell-based; conditions: for IC50: Escherichia coli, read-out: IC50 (inhibit the growth by half); for IC50/IC50(puro): wild-type E. coli, IC50(puro) = concentration causing 50% inhibition in peptide-bond formation at 2 mM puromycin
Procedure: as §2

[4] = test system: central loop of Domain V of 23S rRNA, E. coli ribosomes; test: Time-resolved footprinting of PA–CAM conjugates bound to ribosomes (DMS, kethoxal, CMCT probing, primer extension); assay type: binding
Procedure: Complexes RI and R*I were then probed at 37°C for 10 min with DMS, kethoxal or CMCT, as described previously ([30]). The modified sites in 23S rRNA were then analyzed by primer extension with reverse transcriptase, according to Moazed et al. ([30]). […] Extension products were run on 6% polyacrylamide/7M urea gels. Identification of the modified nucleotides, quantitative scanning of the gels and normalization of the band intensities were made as previously described ([4]). The values indicated in Table 2 denote the ratio between the normalized intensity of a band of interest and the normalized intensity of the corresponding band in the control lane (ribosomes non-treated with drugs).

[5] = early phase of the reaction (encounter complex CI)
[6] = late phase of the reaction (complex C*I)
[7] = R*I binding state (3 min), conjugate at 50 × Ki, 25°C, ratio to control lane R
[8] = RI binding state (2 s), conjugate at 50 × Ki, 25°C, ratio to control lane R

| Compound | IC50 [1] | IC50 [2] | Ki [3, 5] | koff [3] | Ki [3, 6] | potency relative to CAM, based on Kik7/(k6 + k7) [3] | IC50 (wild-type S. aureus) | IC50 (wild-type E. coli) | IC50/IC50(puro) (wild-type E. coli) | also measured |
| --- | --- | --- | --- | --- | --- | --- | --- | --- | --- | --- |
| NCCCCNC(=O)CCC(=O)N[C@H](CO)[C@H](O)c1ccc([N+](=O)[O-])cc1 [Compound 1] | > 200 µM | > 200 µM | 3.37 ± 0.3 µM | 0.0175 ± 0.00167 s⁻¹ | 0.9 ± 0.06 µM | equal | > 200 µM | > 200 µM | >37.0 |  |
| NCCCNCCCCNCCCNC(=O)CCC(=O)N[C@H](CO)[C@H](O)c1ccc([N+](=O)[O-])cc1 [Compound 2] | > 100 µM | > 100 µM | 2.2 ± 0.2 µM | 0.0198 ± 0.00267 s⁻¹ | 0.75 ± 0.06 µM | equal | 45.3 ± 5.5 µM | > 100 µM | >22.2 |  |
| NCCCCN(CCCN)C(=O)CCC(=O)N[C@H](CO)[C@H](O)c1ccc([N+](=O)[O-])cc1 [Compound 3] | > 150 µM | > 150 µM | 3.6 ± 0.3 µM | 0.021 ± 0.00217 s⁻¹ | 1.2 ± 0.1 µM | lower potency | 12.7 ± 1 µM | > 150 µM | >20.8 | protection of U2585 against CMCT (footprinting) ([4]; 2 s or 3 min incubation, Supplementary Figure S6): fails to detect a similar protection |
| O=C(CCC(=O)N[C@H](CO)[C@H](O)c1ccc([N+](=O)[O-])cc1)NCCCNCCCCN(Cc1ccccc1)Cc1ccccc1 [Compound 5] | 32.3 ± 3 µM | 37.1 ± 3.1 µM | 2.1 ± 0.17 µM | 0.0148 ± 0.0013 s⁻¹ | 0.6 ± 0.05 µM | 1.5 fold | 13.7 ± 1.2 µM |  | 9.86 ± 1.29 | IC50 (wild-type E. coli; WT-E. coli, LB medium, 37°C): 35.5 ± 3.6 µM; Relative reactivity of nucleoside A2058 [4, 7]: 0.95 ± 0.08; Relative reactivity of nucleoside A2059 [4, 7]: 1.00 ± 0.08; Relative reactivity of nucleoside A2062 [4, 7]: 1.00 ± 0.09; Relative reactivity of nucleoside A2451 [4, 7]: 0.70 ± 0.05^b; Relative reactivity of nucleoside A2602 [4, 7]: 0.89 ± 0.07; Relative reactivity of nucleoside G2505 [4, 7]: 0.50 ± 0.15^b,c; Relative reactivity of nucleoside U2506 [4, 7]: 0.70 ± 0.06^b; Relative reactivity of nucleoside U2609 [4, 7]: 0.90 ± 0.08; Relative reactivity of nucleoside A2058 [4, 8]: 1.10 ± 0.09; Relative reactivity of nucleoside A2059 [4, 8]: 0.90 ± 0.08; Relative reactivity of nucleoside A2062 [4, 8]: 1.00 ± 0.06; Relative reactivity of nucleoside A2451 [4, 8]: 0.65 ± 0.04^b; Relative reactivity of nucleoside A2602 [4, 8]: 1.00 ± 0.06; Relative reactivity of nucleoside G2505 [4, 8]: 0.74 ± 0.06^b; Relative reactivity of nucleoside U2506 [4, 8]: 0.75 ± 0.05^b; Relative reactivity of nucleoside U2585 [4, 8]: 0.92 ± 0.10; Relative reactivity of nucleoside U2609 [4, 8]: 1.00 ± 0.10 |
| NCCCCNC(=O)c1ccccc1C(=O)N[C@H](CO)[C@H](O)c1ccc([N+](=O)[O-])cc1 [Compound 6] | > 200 µM | > 200 µM | 214 ± 17.1 µM | 0.0125 ± 0.001 s⁻¹ | 8.45 ± 0.67 µM | lower potency | > 200 µM | > 200 µM |  |  |
| O=C(N[C@H](CO)[C@H](O)c1ccc([N+](=O)[O-])cc1)c1nc[nH]n1 [Compound 8] | > 300 µM | > 300 µM | 3 ± 0.3 µM | 0.0183 ± 0.002 s⁻¹ | 1 ± 0.1 µM | equal | > 100 µM | > 300 µM | >50 |  |
| O=C(CCNC(=O)c1nc[nH]n1)N[C@H](CO)[C@H](O)c1ccc([N+](=O)[O-])cc1 [Compound 9] | > 200 µM | > 200 µM | 12 ± 1.08 µM | 0.014 ± 0.0013 s⁻¹ | 4 ± 0.44 µM | lower potency | 66 ± 4.6 µM | > 200 µM | >8.3 |  |
